The values below come from patent US5157032A, “Mixed ligand complexes and uses thereof as binding agents and probes to DNA” (The Trustees of Columbia University In The City of New York, priority 1990, dated 1992).

Entries after “also recorded” stand apart in the source; their conditions may differ.

In one data set the test system is DNA. In words: Luminescence in presence of DNA (preliminary). The data set is classed as binding. As to conditions: in words. An excerpt: Ru(phen)2 (dppz)^2+, and Ru(dip)2 (dppz)^2+ seem have similar behavior as described above. […] We are presently tethering this complexes, Ru(bpy)2 (dppz)^2+, Ru(dppz)2 phen^2+, and Ru(phen)2 (dppz)^2+ to oligonucleotides to develop non-radioactive luminescent DNA probes for both heterogeneous and homogeneous assay systems. The probes, constructed in this way should luminesce only upon finding its target sequence.

Data set [1] has as its system distamycin binding sites on end-labeled DNA fragment. Conditions: cited from earlier work.
Data set [2] shares this test system. In words: Footprinting of distamycin.
The subject of data set [3] is EcoRI site on end-labeled DNA fragment. Conditions: cited from earlier work.
Data set [4] has the same test system. In words: Footprinting of EcoRI. Conditions: in words. The data set is classed as binding.
Data set [5] relates to electrophoresed DNA in agarose gel. In words: Staining of DNA in agarose gels. As to conditions: in words. The text has this: One interesting application is the binding of this complex to DNA that has been electrophoresed in a agarose gel.
Another data set deals with pBR322 DNA. As to conditions: reference intercalator; cited from earlier work.
The next data set concerns calf thymus DNA. In words: Equilibrium dialysis of racemic complexes against calf thymus DNA (Scatchard, dialysate CD). As to conditions: in words. Format: binding. The procedure: Equilibrium Dialysis: Equlibrium dialysis of the reacemic metal complexes was perforemd against calf-thymus DNA using procedures described previously. (74) The buffer used was 5 mM Tris, 50 mM NaCl at pH 7.5. Samples were agitated on a shaker bath during equilibration which occurred after three to five days, as determined by control samples containing no DNA. After equilibration, volumes of liquid inside and outside the dialysis bags were determined (approximately 1 and 3 mls, respectively) and circular dichroism of the dialysate was meaxured on a Jasco J-40 spectropolarimeter. Final ruthenium concentration inside and outside the bags were measured by visible absorbance. Data anaylsis was performed on a VAX-780 using non-linear least squares analysis.
Equilibrium Dialysis: Equilibrium binding constants for the metal complexes with DNA may be determined classically by equilibrium dialysis. Calf thymus DNA was dialyzed against the series of mixed ligand complexes using a broad range of ruthenium concentrations. […] The results have been plotted according to Scatchard (88), where r is the ratio of bound metal to DNA-phosphate concentration, and cf is the concentration of free metal complex. The data were fit by non-linear least squares analysis to the McGhee and von Hippel equation (8945) governing random non-cooperative binding to a lattice,
where r is the ratio of bound concentration of ruthenium to the concentration of DNA-phosphate, cf is the concentration of ruthenium free in soltuion, Kb the intrinsic binding constant, and the integer /, which measures the degree of anti-cooperativeity, is the size of a binding site in base pairs. The curves shown reflect the best fit after variation of two parameters: the intrinsic binding constant, Kb, and binding stie size, /. For those complexes were cooperatively was observed, the equation (89) incorporating a cooperativity parameter was used.
Equilibrium dialysis experiments additionally offer the opportunity to examine any enantiomeric selectivities associated with binding. After dialysis of the DNA against the racemic mixture, optical activity observed in the dialysate refelects an enrichment in the dialysate in the less favored enantiomer. For most of the complexes, optical activity was found in the dialysate. Values for the extent of enantiomeric selectivity could not be quanitated in the absence of determinations of DE and assignments of absolute configuration. Assuming that the signs of the circular chroism in the ultraviolet ligand bands are the same for the these ligands as that for the parent phenanthroline complex, (90) we have assigned the absolute configuration of these complexes by comparison to spectra for enantiomers of Ru(phen)3^2+ and have compared levels of enantioselectivity qualitatively through measurements of circular dichroic intensity per rutheium bound. Based upon these assumptions, we find enantionmeric selectivities for the polyridyl complexes to reflect an enrichment in the isomer in the dialysate and the preferential binding of the isomer to the right-handed DNA. This observation is consistent with the preferential intercalation of isomers found earlier for Ru(phen)3^2+ in right-handed B-DNA. (63) We may also compare relative enantioselectivities for different ancillary ligands. […] The same comparison may be seen qualitatively between Ru(phen)2 DIP^2+ and Ru(bpy)2 DIP^2+.

The nature of a further data set: Stability / handling. Format: physicochemical. As to conditions: in words.

Turning to `[Ru+2].c1ccc(-c2ccnc3c2ccc2c(-c4ccccc4)ccnc23)cc1.c1ccc(-c2ccnc3c2ccc2c(-c4ccccc4)ccnc23)cc1.c1ccc2nc3c4cccnc4c4ncccc4c3nc2c1` [Ru(dip)2 (dppz)^2+], the “luminescence dependence on DNA” value with DNA was “luminesce only in the presence of DNA but not in the presence of H2 O (or Buffer) alone”. As for `Cn1cc(NC(=O)c2cc(NC(=O)c3cc(NC=O)cn3C)cn2C)cc1C(=O)NCCC(=N)N` [distamycin], the “binding site size by crystal structure” value in [1] (cited crystallography) is recorded as “six”. The “distamycin binding sites footprinted” value in [2] (by Rh(phi)2 (bpy)^3+, 5'-end-labeled fragment) was “strong A6 binding site (41-47 bp); also recorded: AATT (67-70, 119-12), TAAT (73-76), AAATT (101-105), and TTAT (107-110)”. As to EcoRI: restriction endonuclease EcoRI, in [3] (cited crystallography), the “crystal binding site size” value is given as “ten”. The “DNA contact length of EcoRI” value in [3] (x-ray co-crystal) is 10 base pairs. On to `[Ru+2].c1ccc2nc3c4cccnc4c4ncccc4c3nc2c1.c1cnc2c(c1)ccc1cccnc12.c1cnc2c(c1)ccc1cccnc12` [Ru(phen)2 (dppz)^2+], for which, in the data set on DNA, the “luminescence dependence on DNA” value is listed as “luminesce only in the presence of DNA but not in the presence of H2 O (or Buffer) alone”. For the compound `[Cu+].c1cnc2c(c1)ccc1cccnc12.c1cnc2c(c1)ccc1cccnc12` [Cu(phen)2 +], in [1] (comparison reagents), the “3'-shift of distamycin footprint” value is listed as 2-3 pair. For the same compound, in data set [2] (in words), the “footprint quality, distamycin” value is recorded as “lacks the necessary sequence neutrality”. Besides, the “footprint quality, EcoRI” value in [4] is on record as “failed to footprint the protein”.

For the compound `CC[n+]1c(-c2ccccc2)c2cc(N)ccc2c2ccc(N)cc21` [ethidium, reference compound], the “staining of DNA in agarose gels” value in [5] is given as “found to stain DNA imbedded in the agarose gels”. Also, the Unwinding Angle with pBR322 DNA is listed as 26 °.

For `N=C1C(=N)c2ccccc2-c2ccccc21.N=C1C(=N)c2ccccc2-c2ccccc21.N=C1C(=N)c2ccccc2-c2ccccc21.[Ru+2]` [Ru(phi)3^2+], the aggregation in solution result in the data set on calf thymus DNA was “extensive aggregation”. Also, the stability result in the data set “Stability / handling” is recorded as “does not decompose upon exposure to air or by continuous irradiation with visible light”.
